In one assay the target is Cbl-b (residues 36-427) (Homo sapiens, UniProt Q13191). Put plainly: Cbl-b binding assay (SPR, Biacore T200). Particulars: 20° C., 1:1 binding model. The gist of the method:
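Steps: capture protein on NeutrAvidin surface; inject compound dilutions (8 or 10 points from 100 or 50 μM) 50 s; allow 90-180 s dissociation; regenerate 20 s with 0.3 M NaCl. Runs at 20° C in HEPES pH 7.5/100 mM NaCl/2% DMSO; 1:1 fitting.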

A further assay concerns T-cell. Kind of assay: IL-2 secretion from T-cells stimulated with anti-CD3 antibody alone (Biological Example 2). Format: cell-based, human. Particulars: T-cell, fold change over baseline, primary human total T-cells, read-out: IL-2 secretion Anti-CD3 stimulation; for fold induction at 1 µM: 1 μM Cbl-b inhibitor; for fold induction at 8 µM: 8 μM Cbl-b inhibitor.
The target in a further assay is Cbl-b (Homo sapiens, UniProt Q13191). Put plainly: Cbl-b inhibition assay (Cbl-b activity assay, FRET, Biological Example 1; 100 mM NaCl, 60 nM Src kinase). Format: biochemical. Particulars: upper bound stated in text lists; read-out: IC50 values in the Cbl-b inhibition assay of Biological Example 1. An outline of the steps: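 Inhibition is read as loss of FRET signal. The signal arises when Src-phosphorylated, N-terminal biotinylated Avi-Cbl-b (captured by streptavidin-terbium) binds UbcH5B carrying covalently linked Bodipy-Fluorescein-tagged ubiquitin.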

The results in this text go back to patent US20220324835A1 (Nurix Therapeutics, Inc., priority 2018, published 2022).

SMILES strings stand for the structures. Counter-ions that a name gives are not always drawn. A value given as a limit tells only on which side of the number the result lay.

Chain of Cbl-b (residues 36-427) (Q13191 36-427): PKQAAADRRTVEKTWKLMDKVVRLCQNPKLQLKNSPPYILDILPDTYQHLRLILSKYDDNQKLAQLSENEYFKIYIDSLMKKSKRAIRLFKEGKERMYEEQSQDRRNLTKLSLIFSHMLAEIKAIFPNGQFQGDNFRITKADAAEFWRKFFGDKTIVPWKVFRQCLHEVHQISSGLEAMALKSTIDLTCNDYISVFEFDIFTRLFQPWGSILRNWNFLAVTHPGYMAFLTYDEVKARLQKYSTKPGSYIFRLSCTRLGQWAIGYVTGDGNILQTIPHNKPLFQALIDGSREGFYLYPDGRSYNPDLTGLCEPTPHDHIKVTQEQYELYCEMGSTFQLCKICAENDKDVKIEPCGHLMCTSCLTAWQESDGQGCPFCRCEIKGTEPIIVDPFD
Chain of Cbl-b (Q13191 36-427): as above

As a reminder, the Kd is the equilibrium constant for the complex coming apart. A low value points to a tighter complex. As usually defined, the IC50 is the midpoint of a concentration-inhibition curve. `Cc1cc(C(=O)Nc2cccc([C@H](C)Cc3nncn3C)c2)nc(C2CC2)n1` [Compound 195, (R)-2-cyclopropyl-6-methyl-N-(3-(1-(4-methyl-4H-1,2,4-triazol-3-yl)propan-2-yl)phenyl)pyrimidine-4-carboxamide] yielded a Kd on Cbl-b (residues 36-427) of less than 100 nM. Besides, in the assay on T-cell, the fold induction at 1 µM is greater than 0.201 and the fold induction at 8 µM is greater than 0.201. For the same compound, the concentration for half-maximal inhibition (IC50) at Cbl-b is no more than 100 nM.

As for `C[C@H](Cc1nncn1C)c1cccc(NC(=O)c2nc3c(C(F)(F)F)cccc3[nH]2)c1` [Compound 196, N-[3-[(1R)-1-methyl-2-(4-methyl-1,2,4-triazol-3-yl)ethyl]phenyl]-4-(trifluoromethyl)-1H-benzimidazole-2-carboxamide], the Kd at Cbl-b (residues 36-427) was in the range of 100 to 300 nM. For the same compound, in the assay on T-cell, the fold induction at 1 µM was greater than 0.201 and the fold induction at 8 µM is greater than 0.201. Besides, on Cbl-b, the IC50 was no more than 100 nM.

As to `C[C@H](Cc1nncn1C)c1cccc(NC(=O)c2ccnc(C3CC3)n2)c1` [Compound 199, (R)-2-cyclopropyl-N-(3-(1-(4-methyl-4H-1,2,4-triazol-3-yl)propan-2-yl)phenyl)pyrimidine-4-carboxamide], the Kd at Cbl-b (residues 36-427) was in the range of 100 to 300 nM. Besides, in the assay with T-cell, the fold induction at 1 µM was greater than 0.201 and the fold induction at 8 µM is greater than 0.201. The IC50 at Cbl-b is no more than 100 nM.

Regarding `C[C@H](Cc1nncn1C)c1cccc(NC(=O)c2ccc(CO)c(C3CC3)n2)c1` [Compound 203, 6-cyclopropyl-5-(hydroxymethyl)-N-[3-[(2R)-1-(4-methyl-4H-1,2,4-triazol-3-yl)propan-2-yl]phenyl]pyridine-2-carboxamide], on Cbl-b (residues 36-427), the Kd was less than 100 nM. Further, in the assay with T-cell, the fold induction at 1 µM was greater than 0.201 and the fold induction at 8 µM was greater than 0.201. Moreover, the half-inhibitory concentration (IC50) on Cbl-b is no more than 100 nM.

`CC(=O)N1CCN(c2ccc3cnc(C(=O)Nc4cccc([C@H](C)Cc5nncn5C)c4)cc3c2)CC1` [Compound 211, (R)-6-(4-acetylpiperazin-1-yl)-N-(3-(1-(4-methyl-4H-1,2,4-triazol-3-yl)propan-2-yl)phenyl)isoquinoline-3-carboxamide 2,2,2-trifluoroacetate] returned an equilibrium dissociation constant (Kd) on Cbl-b (residues 36-427) of 100 to 300 nM. In the assay with T-cell, the fold induction at 1 µM was greater than 0.201 and the fold induction at 8 µM was greater than 0.201. In addition, on Cbl-b, the IC50 was no more than 100 nM.

Regarding `C[C@H](Cc1nncn1C)c1cccc(NC(=O)c2cc(C(=O)N3CC[C@H](O)C3)cc(C(F)(F)F)n2)c1` [Compound 220, 4-((S)-3-hydroxypyrrolidine-1-carbonyl)-N-(3-((R)-1-(4-methyl-4H-1,2,4-triazol-3-yl)propan-2-yl)phenyl)-6-(trifluoromethyl)picolinamide], on Cbl-b (residues 36-427), the Kd is less than 100 nM. In addition, in the assay with T-cell, the fold induction at 1 µM is greater than 0.201 and the fold induction at 8 µM is greater than 0.201. Further, the IC50 at Cbl-b is no more than 100 nM.

In the case of `C[C@H](Cc1nncn1C)c1cccc(N2Cc3c(cccc3C(F)(F)F)C2=O)c1` [Compound 255a, (R)-2-(3-(1-(4-methyl-4H-1,2,4-triazol-3-yl)propan-2-yl)phenyl)-4-(trifluoromethyl)isoindolin-1-one], the dissociation constant Kd on Cbl-b (residues 36-427) lay within 100 to 300 nM. In the assay on T-cell, the fold induction at 1 µM lay within 0.051 to 0.1 and the fold induction at 8 µM is greater than 0.201. Further, the IC50 on Cbl-b was no more than 100 nM.

`C[C@H](Cc1nncn1C)c1cccc(N2Cc3c(cc(C(=O)N4CC[C@H](O)C4)cc3C(F)(F)F)C2=O)c1` [Compound 274, 6-((S)-3-hydroxypyrrolidine-1-carbonyl)-2-(3-((R)-1-(4-methyl-4H-1,2,4-triazol-3-yl)propan-2-yl)phenyl)-4-(trifluoromethyl)isoindolin-1-one] yielded a Kd at Cbl-b (residues 36-427) of less than 100 nM. For the same compound, in the assay on T-cell, the fold induction at 1 µM lay within 0.151 to 0.2 and the fold induction at 8 µM is greater than 0.201. For the same compound, the IC50 on Cbl-b was no more than 100 nM.

At Cbl-b (residues 36-427), `C[C@H](Cc1nncn1C)c1cccc(N2Cc3c(cc(C(=O)N4C[C@@H](O)C[C@H]4C)cc3C(F)(F)F)C2=O)c1` [Compound 275, 6-((2R,4S)-4-hydroxy-2-methylpyrrolidine-1-carbonyl)-2-(3-((R)-1-(4-methyl-4H-1,2,4-triazol-3-yl)propan-2-yl)phenyl)-4-(trifluoromethyl)isoindolin-1-one] displayed a Kd of less than 100 nM. Further, in the assay on T-cell, the fold induction at 1 µM is greater than 0.201 and the fold induction at 8 µM was greater than 0.201. Also, at Cbl-b, the IC50 was no more than 100 nM.

`C[C@H](Cc1nncn1C)c1cccc(N2Cc3c(cc(C(=O)N4CC(O)C4)cc3C(F)(F)F)C2=O)c1` [Compound 276, (R)-6-(3-hydroxyazetidine-1-carbonyl)-2-(3-(1-(4-methyl-4H-1,2,4-triazol-3-yl)propan-2-yl)phenyl)-4-(trifluoromethyl)isoindolin-1-one] came in with a dissociation constant Kd on Cbl-b (residues 36-427) of 301 to 1000 nM. Moreover, in the assay on T-cell, the fold induction at 1 µM lay within 0.051 to 0.1 and the fold induction at 8 µM is 0.151 to 0.2. In addition, the concentration for half-maximal inhibition (IC50) at Cbl-b is no more than 100 nM.

For the compound `C[C@H](Cc1nncn1C)c1cccc(N2Cc3c(cc(C(=O)N4CC[C@H](O)C4)cc3C3CC3)C2=O)c1` [Compound 277, 4-cyclopropyl-6-((S)-3-hydroxypyrrolidine-1-carbonyl)-2-(3-((R)-1-(4-methyl-4H-1,2,4-triazol-3-yl)propan-2-yl)phenyl)isoindolin-1-one], the dissociation constant Kd on Cbl-b (residues 36-427) is 100 to 300 nM. For the same compound, in the assay on T-cell, the fold induction at 1 µM lay in the range of 0.051 to 0.1 and the fold induction at 8 µM was in the range of 0.101 to 0.15. Moreover, the IC50 on Cbl-b is no more than 100 nM.

Compound `Cn1cnnc1CC1(c2cccc(N3Cc4c(cccc4C(F)(F)F)C3=O)c2)CC1` [Compound 299, 2-(3-(1-((4-methyl-4H-1,2,4-triazol-3-yl)methyl)cyclopropyl)phenyl)-4-(trifluoromethyl)isoindolin-1-one] registered an equilibrium dissociation constant (Kd) at Cbl-b (residues 36-427) of 1000 to 3000 nM. In the assay on T-cell, the fold induction at 1 µM was 0.051 to 0.1 and the fold induction at 8 µM is greater than 0.201. Also, the IC50 on Cbl-b is no more than 100 nM.

At Cbl-b (residues 36-427), `Cn1cnnc1CC(C)(C)c1cccc(N2Cc3c(cccc3C(F)(F)F)C2=O)c1` [Compound 300, 2-(3-(2-methyl-1-(4-methyl-4H-1,2,4-triazol-3-yl)propan-2-yl)phenyl)-4-(trifluoromethyl)isoindolin-1-one] yielded a Kd of 100 to 300 nM. Further, in the assay on T-cell, the fold induction at 1 µM was greater than 0.201 and the fold induction at 8 µM was greater than 0.201. The IC50 at Cbl-b was no more than 100 nM.

Take `Cn1cnnc1CC1(c2cccc(N3Cc4c(cccc4C(F)(F)F)C3=O)c2)COC1` [Compound 301, 2-[3-[3-[(4-methyl-1,2,4-triazol-3-yl)methyl]oxetan-3-yl]phenyl]-4-(trifluoromethyl)isoindolin-1-one]: the equilibrium dissociation constant (Kd) on Cbl-b (residues 36-427) lay within 301 to 1000 nM. In addition, in the assay with T-cell, the fold induction at 1 µM was 0.051 to 0.1 and the fold induction at 8 µM lay within 0.101 to 0.15. Also, the concentration for half-maximal inhibition (IC50) on Cbl-b is no more than 100 nM.

With `C[C@H](Sc1nncn1C)c1cccc(NC(=O)c2cc3cc(OCC(=O)NCCN)ccc3cn2)c1` [Compound 311, 6-[2-(2-aminoethylamino)-2-oxo-ethoxy]-N-[3-[(1S)-1-[(4-methyl-1,2,4-triazol-3-yl)sulfanyl]ethyl]phenyl]isoquinoline-3-carboxamide hydrochloride], the Kd at Cbl-b (residues 36-427) was in the range of 100 to 300 nM. In addition, in the assay on T-cell, the fold induction at 1 µM is less than 0.05 and the fold induction at 8 µM was less than 0.05. Further, the IC50 on Cbl-b was no more than 300 nM.

The compound `Cc1cnnn1C[C@@H](C)c1cccc(NC(=O)c2cccc(C(F)(F)F)n2)c1` [Compound 312a, (S)-N-(3-(1-(5-methyl-1H-1,2,3-triazol-1-yl)propan-2-yl)phenyl)-6-(trifluoromethyl)picolinamide] returned a Kd on Cbl-b (residues 36-427) of 301 to 1000 nM. For the same compound, in the assay on T-cell, the fold induction at 1 µM lay in the range of 0.051 to 0.1 and the fold induction at 8 µM is 0.151 to 0.2. For the same compound, the IC50 on Cbl-b is no more than 300 nM.

`C[C@H](Cc1nncn1C)c1cccc(NC(=O)c2n[nH]c3c2CCC3)c1` [Compound 313, (R)-N-(3-(1-(4-Methyl-4H-1,2,4-triazol-3-yl)propan-2-yl)phenyl)-1,4,5,6-tetrahydrocyclopenta[c]pyrazole-3-carboxamide] displayed a Kd at Cbl-b (residues 36-427) of 301 to 1000 nM. Besides, in the assay on T-cell, the fold induction at 1 µM fell in the range of 0.101 to 0.15 and the fold induction at 8 µM was 0.151 to 0.2. The 50% inhibitory concentration (IC50) on Cbl-b was no more than 300 nM.

Compound `C[C@H](Cc1nncn1C)c1cccc(NC(=O)c2nc3c(C4CC4)cccc3[nH]2)c1` [Compound 319, 4-cyclopropyl-N-[3-[(1R)-1-methyl-2-(4-methyl-1,2,4-triazol-3-yl)ethyl]phenyl]-1H-benzimidazole-2-carboxamide] gave a Kd on Cbl-b (residues 36-427) of 100 to 300 nM. Further, in the assay on T-cell, the fold induction at 1 µM was in the range of 0.051 to 0.1 and the fold induction at 8 µM was greater than 0.201. Also, the 50% inhibitory concentration (IC50) at Cbl-b is no more than 300 nM.

`C[C@H](Cc1nncn1C)c1cccc(NC(=O)c2cc(C(C)(C)O)cc(C(F)(F)F)n2)c1` [Compound 320, 4-(2-hydroxypropan-2-yl)-N-[3-[(2R)-1-(4-methyl-4H-1,2,4-triazol-3-yl)propan-2-yl]phenyl]-6-(trifluoromethyl)pyridine-2-carboxamide]: the Kd on Cbl-b (residues 36-427) was 100 to 300 nM. Besides, in the assay with T-cell, the fold induction at 1 µM is 0.101 to 0.15 and the fold induction at 8 µM was greater than 0.201. In addition, the 50% inhibitory concentration (IC50) on Cbl-b is no more than 300 nM.

Take `C[C@H](Cc1nncn1C)c1cccc(NC(=O)c2cccc(C(C)(C)C)n2)c1` [Compound 321, (R)-6-(Tert-butyl)-N-(3-(1-(4-methyl-4H-1,2,4-triazol-3-yl)propan-2-yl)phenyl)picolinamide]: the Kd on Cbl-b (residues 36-427) is 100 to 300 nM. For the same compound, in the assay on T-cell, the fold induction at 1 µM lay within 0.051 to 0.1 and the fold induction at 8 µM was greater than 0.201. Besides, the half-inhibitory concentration (IC50) on Cbl-b is no more than 100 nM.
